# In US20240368168A1, “SARM1 ENZYME ACTIVITY INHIBITOR AND APPLICATION THEREOF” (ARTIVILA BIOPHARMA, priority 2021, published 2024):
# Structures can show the parent of a compound that is named as a salt.
# Target: T1, dN-SARM1 protein (Homo sapiens, UniProt Q6SZW1)
# T1 construct: the N-terminal mitochondrial localization signal peptide of SARM1 was removed
# T1 sequence (Q6SZW1 28-724): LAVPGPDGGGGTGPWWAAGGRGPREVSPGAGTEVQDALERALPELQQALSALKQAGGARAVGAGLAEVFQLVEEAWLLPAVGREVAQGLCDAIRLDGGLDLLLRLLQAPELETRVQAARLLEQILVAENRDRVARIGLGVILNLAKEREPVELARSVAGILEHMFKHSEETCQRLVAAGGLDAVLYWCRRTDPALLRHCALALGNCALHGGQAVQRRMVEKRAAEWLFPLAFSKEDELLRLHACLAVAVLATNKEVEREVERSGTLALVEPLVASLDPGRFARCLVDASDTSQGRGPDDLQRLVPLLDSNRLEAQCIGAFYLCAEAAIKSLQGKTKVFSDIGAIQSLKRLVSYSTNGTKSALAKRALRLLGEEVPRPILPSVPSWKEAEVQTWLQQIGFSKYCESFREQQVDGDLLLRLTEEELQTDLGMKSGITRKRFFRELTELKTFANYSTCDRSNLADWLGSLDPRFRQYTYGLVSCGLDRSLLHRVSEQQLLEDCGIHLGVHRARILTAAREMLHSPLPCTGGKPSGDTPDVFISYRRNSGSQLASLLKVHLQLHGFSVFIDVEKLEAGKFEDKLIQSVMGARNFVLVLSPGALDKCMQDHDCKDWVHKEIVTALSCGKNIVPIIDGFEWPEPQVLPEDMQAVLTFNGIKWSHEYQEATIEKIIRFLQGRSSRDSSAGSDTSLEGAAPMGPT
# Experiment: In vitro biochemical assay for inhibiting SARM1 enzymatic activity (IC50), PC6 fluorescence method
# Details: 50 μM NAD, 50 μM PC6, 50 μM NMN activator
# Method: 200 μM compound was first added to a solution of 0.05 μg/ml dN-SARM1 in 50 mM Tris-HCl (pH 7.5). Half of the mixture was added to an equal volume of a solution of 0.05 μg/ml dN-SARM1 in 50 mM Tris-HCl (pH 7.5) and mixed. The drug was diluted 6 times in this manner, with the final concentrations being 200, 100, 50, 25, 12.5, 6.25, 3.125 μM, or 200, 50, 12.5, 3.125, 0.78, 0.195, 0.049 μM, respectively. The protein without inhibitors added, being used as control group, was incubated at room temperature for 10 minutes.
# 50 μM NAD, 50 μM PC6 as substrate and 50 μM NMN as activator were added to the dN-SARM1 protein incubated with the inhibitor and reacted for 30 minutes at room temperature. The concentration of each component was the final concentration in the reaction system.
# During the reaction, PC6 fluorescence spectrum dynamics were detected by a microplate reader, wherein the excitation wavelength and emission wavelength for detection were 390 nm and 520 nm, respectively. Finally, the reaction rate was used to express the activity of the protein, and the half inhibitory concentration was calculated. The higher the reaction rate, the stronger the protein activity, and the lower the inhibitory efficiency of the compound.
# The dose curve of compounds inhibiting SARM1 enzymatic activity was determined using the above method.
row,SMILES,IC50 [nM]
1,COc1ccc2ncc(-c3cccc(S(N)(=O)=O)c3)n2c1 [Compound 5],1000 to 10000
2,COc1cccc(-c2cnc3ccc(N(C)C(=O)OC(C)(C)C)cn23)n1 [Compound 16],1000 to 10000
3,CN(C(=O)OC(C)(C)C)c1ccc2ncc(-c3ccccn3)n2c1 [Compound 18],1000 to 10000
4,COC(=O)c1ccn2c(-c3ccccc3)cnc2c1 [Compound 23],1000 to 10000
5,CC(=O)N(C)c1ccc2ncc(-c3ccccc3)n2c1 [Compound 42],< 1000
6,CC(=O)N(C)c1ccc2ncc(-c3cccs3)n2c1 [Compound 43],1000 to 10000
7,"CNc1ccc2ncc(-c3cccc(S(=O)(=O)N(C)C(=O)OC(C)(C)C)c3)n2c1 [Compound 59, tert-butyl methyl ((3-(6-(methylamino)imidazo[1,2-a]pyridin-3-yl)phenyl)sulfonyl)carbamate]",1000 to 10000
8,"CNc1ccc2ncc(-c3cccc(S(=O)(=O)NC)c3)n2c1 [Compound 60, N-methyl-3-(6-(methylamino)imidazo[1,2-a]pyridin-3-yl)benzenesulfonamide]",1000 to 10000
9,"CN(C(=O)OC(C)(C)C)c1ccc2ncc(-c3cccc(S(N)(=O)=O)c3)n2c1 [Compound 61, tert-butyl methyl (3-(3-sulfamoylphenyl)imidazo[1,2-a]pyridin-6-yl)carbamate]",1000 to 10000
10,"CNc1ccc2ncc(-c3cccc(S(N)(=O)=O)c3)n2c1 [Compound 62, 3-(6-(methylamino)imidazo[1,2-a]pyridin-3-yl) benzenesulfonamide]",1000 to 10000
11,CNc1ccc2ncc(-c3cccc(C(N)=O)c3)n2c1 [Compound 64],1000 to 10000
12,CNc1ccc2ncc(-c3ccccc3C)n2c1 [Compound 67],1000 to 10000
13,CNc1ccc2ncc(-c3ccc(OC)cc3)n2c1 [Compound 72],1000 to 10000
14,CNc1ccc2ncc(-c3cccnc3)n2c1 [Compound 73],1000 to 10000
15,CNc1ccc2ncc(-c3ccncc3)n2c1 [Compound 74],1000 to 10000
16,CNc1ccc2ncc(-c3ccccn3)n2c1 [Compound 76],1000 to 10000
17,"CC(C)(C)OC(=O)N1CCOCCN(C(=O)OC(C)(C)C)S(=O)(=O)c2cccc(c2)-c2cnc3ccc1cn23 [Compound 80, di-tert-butyl(E)-7-oxa-3-thio-4,10-diaza-1(3,6)-imidazol[1,2-a]pyridin-2(1,3)-phenylcyclodecane-4,10-dicarboxylate 3,3-dioxide]",1000 to 10000

row,SMILES,IC50 [nM]
1,"O=S1(=O)NCCOCCNc2ccc3ncc(n3c2)-c2cccc1c2 [Compound 81, (E)-7-oxa-3-thia-4,10-diaza-1(3,6)-imidazo[1,2-a]pyridine-2(1,3)-benzocyclodecane 3,3-dioxide]",1000 to 10000
2,"COc1ccc2ncc(Nc3ccccc3)n2c1 [Compound 82, 6-methoxy-N-phenylimidazo[1,2-a]pyridin-3-amine]",1000 to 10000
3,CN(C(=O)OC(C)(C)C)c1ccc2ncc(C3=CCCCC3)n2c1 [Compound 83],1000 to 10000
4,"CNc1ccc2ncc(C3CCCCC3)n2c1 [Compound 85, 3-cyclohexyl-N-methylimidazo[1,2-a]pyridin-6-amine]",1000 to 10000
5,"Brc1cnc2ccc(NC3CCOC3)cn12 (stereo not drawn) [Compound 86, 3-bromo-N-(tetrahydrofuran-3-yl)imidazo[1,2-a]pyridin-6-amine]",< 1000
6,"NS(=O)(=O)c1cccc(-c2cnc3ccc(N[C@@H]4CCCNC4)cn23)c1 [Compound 89, (R)-3-(6-(piperidin-3-ylamino)imidazo[1,2-a]pyridin-3-yl)benzenesulfonamide]",< 1000
7,"CN(c1ccc2ncc(-c3ccccc3)n2c1)S(C)(=O)=O [Compound 91, N-methyl-N-(3-phenylimidazo[1,2-a]pyridin-6-yl)methanesulfonamide]",1000 to 10000
8,"CC(=O)N(C)c1ccc2ncc(-c3ccccc3Cl)n2c1 [Compound 92, N-(3-(2-chlorophenyl)imidazo[1,2-a]pyridin-6-yl)-N-methylacetamide]",1000 to 10000
9,"Cc1ncsc1-c1ccc(CNC(=O)[C@@H]2C[C@@H](O)CN2C(=O)[C@@H](NC(=O)COCCOCC(=O)N(C)c2ccc3ncc(-c4ccccc4Cl)n3c2)C(C)(C)C)cc1 [Compound 117, (2S,4R)-1-((S)-12-(tert-butyl)-2-(3-(2-chlorophenyl)imidazo[1,2-a]pyridin-6-yl)-3,10-dioxo-5,8-dioxa-2,11-diazahexadecane-13-acyl)-4-hydroxy-N-(4-(4-methylthiazol-5-yl)benzyl)pyrrolidin-2-carboxamide]",1000 to 10000
10,"CNc1ccc2ncc(-c3cccc(NC(=O)COCCOCCOCC(=O)N[C@H](C(=O)N4C[C@H](O)C[C@H]4C(=O)NCc4ccc(-c5scnc5C)cc4)C(C)(C)C)c3)n2c1 [Compound 120, (2S,4R)-1-((S)-2-(tert-butyl)-14-((3-(6-(methylamino)imidazo[1,2-a]pyridin-3-yl)phenyl)amino)-4,14-dioxo-6,9,12-trioxa-3-azatetradecanoyl)-4-hydroxy-N-(4-(4-methylthiazol-5-yl)benzyl)pyrrolidin-2-carboxamide hydrochloride]",< 1000
11,CNc1ccc2ncc(-c3cccc4c3C(=O)NC4)n2c1 [Compound 165],< 1000
12,CNc1ccc2ncc(-c3ccnc4[nH]ccc34)n2c1 [Compound 166],< 1000
13,CNc1ccc2ncc(-c3cccc(NC(=O)c4ccccc4)n3)n2c1 [Compound 172],< 1000
14,CN(C(=O)OC(C)(C)C)c1ccc2ncc(-c3cccc4nccn34)n2c1 [Compound 173],1000 to 10000
15,CNC(=O)c1ccccc1-c1cnc2ccc(N(C)C(=O)OC(C)(C)C)cn12 [Compound 174],< 1000
16,CN(C(=O)OC(C)(C)C)c1ccc2ncc(-c3ccccc3C(=O)NC3CCOCC3)n2c1 [Compound 175],< 1000
17,CNC(=O)c1ccccc1-c1cnc2ccc(NC)cn12 [Compound 176],1000 to 10000

# Next, values leading:
row,IC50 [nM],SMILES
1,1000 to 10000,CNc1ccc2ncc(-c3ccccc3C(=O)NC3CCOCC3)n2c1 [Compound 177]
2,< 1000,CN(C(=O)OC(C)(C)C)c1ccc2ncc(-c3cccc(-n4cccn4)c3)n2c1 [Compound 178]
3,< 1000,CNc1ccc2ncc(-c3cccc(-n4cccn4)c3)n2c1 [Compound 179]
4,1000 to 10000,CNc1ccc2ncc(-c3cccc(N)n3)n2c1 [Compound 180]
5,1000 to 10000,CN(C(=O)OC(C)(C)C)c1ccc2ncc(-c3ccnc(NC(=O)c4ccccc4)c3)n2c1 [Compound 182]
6,1000 to 10000,CN(C(=O)OC(C)(C)C)c1ccc2ncc(-c3ccnc4[nH]ccc34)n2c1 [Compound 184]
7,1000 to 10000,CNc1ccc2ncc(-c3ccnnc3)n2c1 [Compound 186]
8,1000 to 10000,CNc1ccc2ncc(-c3ccccc3C(C)NC(=O)C3CCOCC3)n2c1 (stereo not drawn) [Compound 191]
9,1000 to 10000,CNc1ccc2ncc(-c3ccc4cc[nH]c4n3)n2c1 [Compound 192]
10,1000 to 10000,CNc1ccc2ncc(-c3ccc(NC(=O)C4CCOCC4)cn3)n2c1 [Compound 193]
11,1000 to 10000,CN(C(=O)OC(C)(C)C)c1ccc2ncc(-c3cnc(N)nc3)n2c1 [Compound 194]
12,1000 to 10000,CNc1ccc2ncc(-c3cnc(N)nc3)n2c1 [Compound 195]
13,1000 to 10000,CN(C(=O)OC(C)(C)C)c1ccc2ncc(-c3ccc4[nH]ccc4n3)n2c1 [Compound 196]
14,1000 to 10000,CNc1ccc2ncc(-c3ccc4[nH]ccc4n3)n2c1 [Compound 197]
15,1000 to 10000,CN(C(=O)OC(C)(C)C)c1ccc2ncc(-c3ccc4[nH]ccc4c3)n2c1 [Compound 199]
16,1000 to 10000,CNc1ccc2ncc(-c3cccc(-n4cccc4)c3)n2c1 [Compound 200]
17,1000 to 10000,"c1cc(-c2cnc3ccc(-n4cccn4)cn23)c2cc[nH]c2c1 [Compound 202, 3-(1H-indol-4-yl)-6-(1H-pyrazol-1-yl)imidazo[1,2-a]pyridine]"
18,< 1000,Ic1cnc2ccc(-n3cccc3)cn12 [Compound 203]
19,1000 to 10000,Nc1cccc(-c2cnc3ccc(N4CCCC4=O)cn23)c1 [Compound 204]
20,1000 to 10000,O=C(Nc1cccc(-c2cnc3ccc(-n4cccn4)cn23)c1)C1CCOCC1 [Compound 207]
